Reference: publication PMC12508156, “Non-canonical dihydrolipoyl transacetylase promotes chemotherapy resistance via mitochondrial tetrahydrofolate signaling” (Nature Communications, 2025)
Residues, ends and D or L forms follow the SMILES beside them.

Experiments:
[1] = HPLC-based in vitro serum stability assay; format: in vitro ADME; details: 0.2 mg DMp39 incubated for indicated times with pre-warmed 50% serum, remaining peptide by heights of elution peaks, optimal dose of 20 μM
Method: Fig. 8 Decoy peptide DMp39 targets DLAT-mediated MTHFD2 acetylation and increases tumor chemosensitivity in vitro and in vivo. a The structure of MTHFD2. K44 containing α-helix in MTHFD2, is marked in purple. The amino acid sequence of DMp39 is shown at the top. b HPLC-based in vitro serum stability assay of DMp39. DMp39 (0.2 mg) was incubated for indicated times with pre-warmed 50% serum and applied to HPLC. […] Liver, kidney, and spleen toxicity were assessed by serum alanine aminotransferase, cystatin C, and spleen index (spleen weight (mg)/body weight (g) x 10), respectively. g Efficacy test of Cy7-DMp39 in vivo. […] MTHFD2 and Ac-K44 MTHFD2 levels in tumors were assessed by co-immunoprecipitation of MTHFD2. […] Representative images of the tumors at the endpoint are presented in (h) and (k). Ac-K44 MTHFD2, MT-CO2, and DLAT levels in both xenograft mouse tumors were assessed by IHC staining (j, m). Scale bars in (h) and (k) represent 10 mm and 25 μm in (j) and (m). Results are presented as mean ± SEM for (h, k) and mean ± SD for the rest. n = 3 per group for (e, f), n = 6 for (g) left, n = 5 for (g) right, n = 6 for (h–j), and n = 5 for (k–m). P values were obtained by one-way ANOVA. Source data are provided as a Source Data file.

[2] = Organ toxicity in mice (serum ALT, cystatin C, spleen index); format: in vivo
Method: K44 containing α-helix in MTHFD2, is marked in purple. The amino acid sequence of DMp39 is shown at the top. b HPLC-based in vitro serum stability assay of DMp39. DMp39 (0.2 mg) was incubated for indicated times with pre-warmed 50% serum and applied to HPLC. […] Liver, kidney, and spleen toxicity were assessed by serum alanine aminotransferase, cystatin C, and spleen index (spleen weight (mg)/body weight (g) x 10), respectively. g Efficacy test of Cy7-DMp39 in vivo. […] MTHFD2 and Ac-K44 MTHFD2 levels in tumors were assessed by co-immunoprecipitation of MTHFD2. […] Representative images of the tumors at the endpoint are presented in (h) and (k). Ac-K44 MTHFD2, MT-CO2, and DLAT levels in both xenograft mouse tumors were assessed by IHC staining (j, m). […]
Mice were subcutaneously injected into the flank with 1 × 10^6 KB-3-1^cisR cells with or without DLAT knockdown. […] The tumor volume of KB-3-1^cisR or PDX tumors was monitored by blinded measurements of two perpendicular diameters and calculated using the formula 4π/3 x (width/2)^2 x (length/2). […] Tumors were collected at the experimental endpoint, and tumor proliferation was assessed using Ki-67 IHC staining. The localization, penetration, and efficacy of DMp39 were monitored by assessing the acetyl-K44 levels in tumors and fluorescence imaging analysis using an IVIS imaging system. […]

Q: With `CC[C@H](C)[C@H](NC(=O)[C@H](CCC(N)=O)NC(=O)[C@H](CCC(N)=O)NC(=O)[C@H](C)NC(=O)[C@H](CC(C)C)NC(=O)[C@H](CCCCN)NC(=O)[C@H](CCCNC(=N)N)NC(=O)CNC(=O)[C@H](CO)NC(=O)[C@@H](NC(=O)[C@@H](N)C(C)C)[C@@H](C)CC)C(=O)N[C@@H](CCCCN)C(=O)N[C@@H](CCC(N)=O)C(=O)N[C@@H](CCC(=O)O)C(=O)N[C@H](C(=O)N[C@@H](CCCNC(=N)N)C(=O)N[C@@H](CCC(N)=O)C(=O)N[C@@H](CCC(=O)O)C(=O)N[C@H](C(=O)N[C@@H](CCC(=O)O)C(=O)N[C@@H](CCC(=O)O)C(=O)N[C@@H](Cc1c[nH]c2ccccc12)C(=O)N[C@H](C(=O)N[C@@H](C)C(=O)N[C@@H](CO)C(=O)NCC(=O)N[C@@H](CC(N)=O)C(=O)N[C@@H](CCCCN)C(=O)N[C@@H](Cc1ccc(O)cc1)C(=O)NCC(=O)N[C@@H](CCCNC(=N)N)C(=O)N[C@@H](CCCCN)C(=O)N[C@@H](CCCCN)C(=O)N[C@@H](CCCNC(=N)N)C(=O)N[C@@H](CCCNC(=N)N)C(=O)N[C@@H](CCC(N)=O)C(=O)N[C@@H](CCCNC(=N)N)C(=O)N[C@@H](CCCNC(=N)N)C(=O)N[C@@H](CCCNC(=N)N)C(=O)O)C(C)C)C(C)C)C(C)C` [DMp39] (H-VISGRKLAQQIKQEVRQEVEEWVASGNKYGRKKRRQRRR-OH) as the compound, how does the time-dependent serum stability [1] read?
A: stable

Q: What about the toxicity markers ([2]; mice, sublethal cisplatin (5 mg/kg, twice/week for 22 days) and/or DMp39) of the same compound?
A: remained at baseline levels

Q: And the acute toxicity ([2]; short-term dosing in mice)?
A: no acute toxicity
